# Test results as given in patent US20100120703A1, “COMPOSITIONS AND METHODS FOR TREATING CANCER” (priority 2007, published 2010).
# Key:
# Sprague Dawley (SD) rats [1] = assay: Histological analysis and GST-p immunostaining of liver, promotion stage; format: in vivo, rat
# Description: In the promotion stage experiment, rats in the negative control group received weekly intraperitoneal (i.p.) injection of DMSO for the first 2 weeks and then Corn Oil for the rest of the schedule. Rats in the positive control and SIN-treatment groups both received weekly intraperitoneal (i.p.) injection of the carcinogen DEN for the first 2 weeks and then promoter, Carbon Tetrachloride (CCl4) for the rest of the schedule. Two weeks of fasting were inserted between the initiator carcinogen treatment and the promoter CCl4 treatment. During the fasting period of 2 weeks, rats were fasted for 5 days, followed by a 2 day feeding, and another 5 days of fasting. Water was given ad libitum. Negative and positive control groups received oral treatment of water once a day after fasting. Sinigrin with dosage 15 mg/kg was administered orally to the treatment group daily for 28 weeks after fasting.
# Histological analysis was performed to observe the basic structure of the hepatocytes. Xylene was purchased from Mallinckrodt. Ethanol was purchased from BDH. ABC staining (Anti-rabbit) kit (sc-2018) was purchased from Santa Cruz. Superfrost Microscope slide was purchased from Fisher. 30% H2O2, DAB and Formaldehyde were purchased from Sigma. Anti-GST-pi rabbit polyclonal antibody was purchased from MBL.
# The liver samples were fixed with 10% formaldehyde and put in cassettes for dehydration and fixed with wax. […]
# Sprague Dawley (SD) rats [2] = assay: DEN/CCl4-induced hepatoma in rats, progression stage: liver observation and weight; format: in vivo, rat; settings: 15 mg/kg oral daily for 24 weeks
# Description: The effect of SIN on progression stage of cancer development was studied. FIG. 20 summarized the protocol applied to rats. The amounts of rats and grouping method were all the same as in the promotion stage experiment.
# Rats in the negative control group received weekly intraperitoneal (i.p.) injection of DMSO for the first 2 weeks and then Corn Oil for 28 weeks. Rats in the positive control and SIN-treatment groups both received weekly intraperitoneal (i.p.) injection of DEN for the first 2 weeks and then CCl4 for 28 weeks. Two weeks of fasting were inserted between DEN treatment and CCl4 treatment. Starting from 33rd week, negative and positive control groups received oral administration of water once a day. Sinigrin with dosage 15 mg/kg was administered orally to the SIN-treatment group daily for 24 weeks. After treatment, the rats were killed. Blood and liver were collected and processed as described in the foregoing examples.
compound,measurement,setting,value
"C=CC/C(=N/OS(=O)(=O)[O-])S[C@@H]1OC(CO)[C@@H](O)C(O)C1O.[K+] (stereo partly shown) [SIN, sinigrin]",hepatocyte structure in liver sections (H&E),Sprague Dawley (SD) rats [1]; 15 mg/kg oral daily,the basic structure of hepatocytes and the central vein were restored
same,GST-p positive area / whole section area,Sprague Dawley (SD) rats [1]; positive control 35%,5%
same,percentage of liver weight and liver weight index vs negative group,Sprague Dawley (SD) rats [2],only slightly higher
same,visible tumors on liver (direct observation),Sprague Dawley (SD) rats [2],few visible tumors
